Measured values from patent publication US11549123B2, “Plant EPSP synthases and methods of use” (PIONEER HI-BRED INTERNATIONAL, INC., priority 2015, dated 2023).
Where a chain is given by its changes, count along the chain named. pKi: −log10 of the molar value.

How the values were obtained:
Format in all cases: biochemical
[1] = target: T1, Zea mays EPSPS variant Zm-H6 (868-H6) with A69V (H6-A69V) (Zea mays, UniProt O24566, A1R/A3W/A415G/A68V/A71Q/D401G/E301S/E390G/G101A/I207L/K83R/L97C/T278A/T360S/T440Q/V437R); experiment: Substrate saturation kinetic analysis with glyphosate, H6-A69V
T1 sequence (O24566 with tags, fused parts or gaps A1R/A3W/A68V/A71Q/K83R/L97C/G101A/I207L/T278A/E301S/T360S/E390G/D401G/A415G/V437R/T440Q): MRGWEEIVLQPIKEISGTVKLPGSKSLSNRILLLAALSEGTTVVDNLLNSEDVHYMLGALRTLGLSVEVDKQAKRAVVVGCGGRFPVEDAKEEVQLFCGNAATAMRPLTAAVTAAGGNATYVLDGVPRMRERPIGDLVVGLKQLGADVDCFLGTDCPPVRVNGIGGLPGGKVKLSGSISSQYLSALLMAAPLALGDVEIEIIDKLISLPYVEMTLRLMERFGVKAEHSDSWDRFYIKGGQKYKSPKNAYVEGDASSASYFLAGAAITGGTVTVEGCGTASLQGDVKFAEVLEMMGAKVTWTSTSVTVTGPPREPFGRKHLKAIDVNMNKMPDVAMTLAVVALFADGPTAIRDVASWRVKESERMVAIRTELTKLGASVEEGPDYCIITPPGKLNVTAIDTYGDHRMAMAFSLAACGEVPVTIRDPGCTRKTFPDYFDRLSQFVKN

[2] = target: Zea mays EPSPS variant 208V 313G (Zea mays, UniProt O24566, E312G/I207V); experiment: EPSPS reaction rate with or without 10 uM glyphosate, 208V 313G; conditions: pH 7; read-out: Reaction rate with 10 μM glyph, % no glyph; also: 50 µM PEP and S3P
[3] = target: T2, Zea mays EPSPS variant Zm-T103I (Zea mays, UniProt O24566, T102I); experiment: Substrate saturation kinetic analysis with glyphosate, Zm-T103I
T2 construct: native maize plus T103I; E. coli BL21(DE3), Ni-NTA purified
T2 sequence (O24566 with tags, fused parts or gaps T102I): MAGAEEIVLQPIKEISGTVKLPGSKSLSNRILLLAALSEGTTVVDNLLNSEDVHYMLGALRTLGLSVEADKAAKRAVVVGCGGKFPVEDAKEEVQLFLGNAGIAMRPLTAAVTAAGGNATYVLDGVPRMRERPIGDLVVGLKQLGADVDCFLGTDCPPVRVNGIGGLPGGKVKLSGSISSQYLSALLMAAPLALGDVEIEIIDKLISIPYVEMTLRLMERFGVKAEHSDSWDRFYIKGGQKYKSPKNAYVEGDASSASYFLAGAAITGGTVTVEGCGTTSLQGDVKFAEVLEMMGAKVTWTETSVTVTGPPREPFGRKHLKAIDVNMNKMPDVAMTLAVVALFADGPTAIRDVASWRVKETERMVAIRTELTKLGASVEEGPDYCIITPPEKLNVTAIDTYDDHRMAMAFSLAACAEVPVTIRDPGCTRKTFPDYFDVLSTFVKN

[4] = target: T3, Zea mays EPSPS variant Zm-T103A (Zea mays, UniProt O24566, T102A); experiment: Rapid two-rate method for (kcat/KM)*KI, Zm-T103A; conditions: [E] 0.07 uM, [Gly] 1000 uM
T3 construct: native maize plus T103A; E. coli BL21(DE3), Ni-NTA purified
T3 sequence (O24566 with tags, fused parts or gaps T102A): T2 sequence (O24566 with tags, fused parts or gaps T102I) with I103A
Description: There are several practical considerations for accurately estimating (kcat/KM)*KI with the rapid method. […] 2) The inhibitor concentration must be adjusted so as to obtain a degree of inhibition that minimally amplifies the error in the term v0-vi in Equation 3. If inhibition is too little, v0-vi will be small, and the error in the multiplier vi×v0/(v0-vi) will be large. […] 3) Substrate concentration should be set at the approximate KM of the parental variant(s), subject to the sensitivity of the assay. High substrate concentration obscures sensitivity to the inhibitor and reduces stringency for capturing improvements in KM. Depending on the necessity for speed, there exists opportunity for customizing enzyme and inhibitor concentrations. […] The rapid method was repeated for those and obtained data that correlated better with data obtained by substrate saturation analysis. For screening purposes however, that correlation step is not necessary. Conditions can be set so that variants with a pre-determined minimal fitness level are accurately quantified.
In Table 15, parameters above the heavy line for the rapid method were obtained under standard conditions. For variants shown below the heavy line, the rapid analysis was repeated with enzyme or glyphosate concentrations adjusted as needed to generate sufficient signal within the limits for linear initial rates.

[5] = target: T4, Zea mays EPSPS variant Zm-H6 (868-H6) with D196V (H6-D196V) (Zea mays, UniProt O24566, A1R/A3W/A415G/A71Q/D195V/D401G/E301S/E390G/G101A/I207L/K83R/L97C/T278A/T360S/T440Q/V437R); experiment: Substrate saturation kinetic analysis with glyphosate, H6-D196V
T4 construct: shuffled variant 868-H6 plus D196V; E. coli BL21(DE3), Ni-NTA purified
T4 sequence (O24566 with tags, fused parts or gaps A1R/A3W/A71Q/K83R/L97C/G101A/D195V/I207L/T278A/E301S/T360S/E390G/D401G/A415G/V437R/T440Q): T1 sequence (O24566 with tags, fused parts or gaps A1R/A3W/A68V/A71Q/K83R/L97C/G101A/I207L/T278A/E301S/T360S/E390G/D401G/A415G/V437R/T440Q) with V69A, D196V

Zea mays EPSPS variant 208V 313G, sequence (O24566 1-444 I207V/E312G): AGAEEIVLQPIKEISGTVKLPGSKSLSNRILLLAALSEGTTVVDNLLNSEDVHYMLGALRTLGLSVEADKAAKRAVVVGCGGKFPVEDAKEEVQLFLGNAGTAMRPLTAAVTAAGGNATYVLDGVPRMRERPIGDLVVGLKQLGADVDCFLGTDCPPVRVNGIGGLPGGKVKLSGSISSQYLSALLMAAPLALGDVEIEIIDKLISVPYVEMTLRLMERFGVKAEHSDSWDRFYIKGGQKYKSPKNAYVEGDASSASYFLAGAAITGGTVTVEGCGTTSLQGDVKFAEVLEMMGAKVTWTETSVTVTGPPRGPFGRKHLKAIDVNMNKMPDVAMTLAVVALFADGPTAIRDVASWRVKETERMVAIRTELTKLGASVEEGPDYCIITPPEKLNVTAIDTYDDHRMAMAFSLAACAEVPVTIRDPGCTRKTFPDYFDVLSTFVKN

**Q.** With O=C(O)CNCP(=O)(O)O [glyphosate, N-phosphonomethylglycine] as the molecule, how does the pKi [1] read?
**A.** 3.49

**Q.** And the “(kcat/KM)*KI” value ([1]; substrate saturation, H6-A69V)?
**A.** 2440

**Q.** And the activity at 10 µM [2]?
**A.** 3.21%

**Q.** And the pKi [3]?
**A.** 4.28

**Q.** And the “(kcat/KM)*KI” value ([3]; substrate saturation, Zm-T103I)?
**A.** 99

**Q.** What about the “(kcat/KM)*KI” value [4] of the same molecule?
**A.** 543

**Q.** What about the pKi [5] of the same molecule?
**A.** 3.16

**Q.** And the “(kcat/KM)*KI” value ([5]; substrate saturation, H6-D196V)?
**A.** 1860
